Experimental data as given in patent US20240132511A1, “TREATMENTS OF PRADER-WILLI SYNDROME” (Neuren Pharmaceuticals Limited, priority 2021, published 2024).

What was measured:
[1] = test system: Magel2-null mice; assay: Open Field hypoactivity (distance travelled, time spent active); assay type: in vivo, mouse; design: key: **** = p < 0.0001; ns = not significant
From the text: (§1) The mouse locus 7qB4/B5 (syntenic with the Prader-Willi region at chromosome position 15q11-q13 in humans) encompasses the cluster of paternally-expressed imprinted genes Magel2, Ndn, Mkrn3, and Peg12. As maternal imprinting silences the Magel2 allele, only the paternally inherited Magel2 allele is expressed. Heterozygous females were bred with wild-type males (or C57BL/6J inbred males) to maintain the line; as the resulting offspring will have no abnormal phenotype. To obtain “Magel2-null” offspring (both maternal and paternal Magel2 alleles are non-functional), wild-type females are bred with heterozygous males; allowing maternal transmission of the imprinted/silenced wild-type allele and paternal transmission of the Magel2-lacZ (null) allele. Magel2-null mice have disrupted circadian rhythm and metabolism, total activity, food consumption, weight before weaning, and fertility in both sexes, as well as increased adiposity after weaning and altered behavior. Magel2-null mice on this C57BL/6J genetic background recapitulate Prader-Willi syndrome. Because the genetic mutation in the Magel2-null animals is the same as the mutation in human beings, studies in Magel2-null mice are reasonably predictive of effects of compounds in human beings.
(§2) In vivo experiments were conducted in C57BL/6-Magel2tm1Stw/J (Magel2-null) mice at age P60 and their wild-type littermates during the light phase (littermates that were wild-type for Magel2 were used as controls). Ten mice per treatment group were used for studies 1 and 2, and six mice per group for study 3. In study 1: C57BL/6-Magel2tm1Stw/J (Magel2-null) mice were assessed on behavioral assays. Study 2 tested the efficacy of cG-2-AllylP in treating obesity and insulin levels in Magel2-null mice. Study 3 tested the IGF-1 level in Magel2-null mice. Because human beings have the same genetic abnormality, studies of Magel2-null mice are reasonably predictive of effects of compounds of Formulas I, II, III and IV in human beings with Prader-Willi Syndrome.
(§3) Testing was performed during the light phase of the circadian cycle, with the order of testing being determined by the principle of conducting the most stressful tests last. Assays were designed to reproduce and expand on the original behavioral characterization of Magel2-null mice. Magel2-null and wild-type control mice were dosed once daily for 6 weeks prior to testing and tested 30 minutes following a dose of cG-2-AllylP (NNZ2591). Study groups and the treatment matrix are described in Table 2 below.
To evaluate whether cG-2-AllylP is effective to treat the hypoactivity in PWS, Open Field studies were carried out.
The relative distance travelled or time spent active is shown on the vertical axis, and the mean of each treatment group is shown on the horizontal axis. Wild-type (WT) mice treated with vehicle alone (left column) were considered to travel 100% or to have 100% activity.

[2] = test system: Magel2-null mice; assay: Nest building quality; assay type: in vivo, mouse; design: key: **** = p < 0.0001; ns = not significant
From the text: as §1, §2, §3
For small rodents, nests are important in heat conservation as well as reproduction and shelter. Nest building is an activity needed for mice to raise their offspring and is an indicator of social adaptation and activities of daily living. Typically, changes in nesting behaviors, such as failure to create a nest, indicate a change in health or welfare. Nesting behavior is sensitive to many genetic mutations underlying pathological disease states.
Nesting behavior is impaired in Magel2-null mice. Therefore, to determine if cG-2-AllylP might restore the quality of nest building, a series of studies were carried out.

[3] = test system: Magel2-null mice; assay: Sniffing test of social interaction; assay type: in vivo, mouse; design: key: **** = p < 0.0001; ns = not significant
From the text: as §1, §2, §3
People with Prader-Willi Syndrome show deficits in social behavior compared with people without Prader-Willi Syndrome. Two tests were carried out to assess the social behavior deficits of Magel2-null mice.
The sniffing test of social interaction measures the number of sniffing events.

[4] = test system: Magel2-null mice; assay: Novel Object Recognition (NOR); assay type: in vivo, mouse; design: key: **** = p < 0.0001; ns = not significant
From the text: as §1, §2, §3
The NOR test is used to evaluate cognition, based on the tendency for mice to spend more time exploring a novel object that a familiar object. Magel2-null mice display a lack of discrimination between known and novel objects.

[5] = test system: Magel2-null mice; assay: Circulating IGF-1 level in Magel2-null mice; assay type: in vivo, mouse; design: key: **** = p < 0.0001; ns = not significant
Description: as §2, §3
Prader-Willi Syndrome may be associated with altered IGF-1 levels in humans.

[6] = Magel2-null + NNZ2591 (100 mg/kg) vs. Magel2-null + NNZ2591 (200 mg/kg)
[7] = Magel2-null + Vehicle vs. Magel2-null + NNZ2591 (100 mg/kg)
[8] = Magel2-null + Vehicle vs. Magel2-null + NNZ2591 (200 mg/kg)
[9] = WT + NNZ2591 (100 mg/kg) vs. Magel2-null + NNZ2591 (100 mg/kg)
[10] = WT + NNZ2591 (200 mg/kg) vs. Magel2-null + NNZ2591 (200 mg/kg)
[11] = WT + Vehicle vs. WT + NNZ2591 (100 mg/kg)
[12] = WT + Vehicle vs. WT + NNZ2591 (200 mg/kg)

melting point: 106 to 109 °C
Structure (SMILES): C=CCC12CCCN1C(=O)CNC2=O [cG-2-AllylP, (8aS)-Allyl-hexahydropyrrolo[1,2-a]pyrazine-1,4-dione]
Open Field (Hypoactivity) - Motility, Sidak's multiple comparisons test, Summary [1, 6]: ns
Open Field (Hypoactivity) - Distance travelled, Sidak's multiple comparison test, Summary [1, 7]: **** (**** = p < 0.0001)
Open Field (Hypoactivity) - Distance travelled, Sidak's multiple comparison test, Summary [1, 8]: **** (**** = p < 0.0001)
Open Field (Hypoactivity) - Motility, Sidak's multiple comparisons test, Summary [1, 8]: **** (**** = p < 0.0001)
Open Field (Hypoactivity) - Motility, Sidak's multiple comparisons test, Summary ([1]; Magel2-null + Vehicle vs. WT + NNZ2591 (100 mg/kg)): **** (**** = p < 0.0001)
Open Field (Hypoactivity) - Distance travelled, Sidak's multiple comparison test, Summary [1, 9]: ns
Open Field (Hypoactivity) - Motility, Sidak's multiple comparisons test, Summary [1, 9]: ns
Open Field (Hypoactivity) - Distance travelled, Sidak's multiple comparison test, Summary ([1]; WT + NNZ2591 (100 mg/kg) vs. Magel2-null + NNZ2591 (200 mg/kg)): ns
Open Field (Hypoactivity) - Distance travelled, Sidak's multiple comparison test, Summary [1, 10]: ns
Open Field (Hypoactivity) - Motility, Sidak's multiple comparisons test, Summary [1, 10]: ns
Open Field (Hypoactivity) - Distance travelled, Sidak's multiple comparison test, Summary [1, 11]: ns
Open Field (Hypoactivity) - Motility, Sidak's multiple comparisons test, Summary [1, 11]: ns
Open Field (Hypoactivity) - Distance travelled, Sidak's multiple comparison test, Summary [1, 12]: ns
Open Field (Hypoactivity) - Motility, Sidak's multiple comparisons test, Summary [1, 12]: ns
Nesting, Sidak's multiple comparisons test, Summary [2, 6]: ns
Nesting, Sidak's multiple comparisons test, Summary [2, 7]: **** (**** = p < 0.00001.)
Nesting, Sidak's multiple comparisons test, Summary [2, 8]: **** (**** = p < 0.00001.)
Nesting, Sidak's multiple comparisons test, Summary [2, 9]: ns
Nesting, Sidak's multiple comparisons test, Summary [2, 10]: ns
Nesting, Sidak's multiple comparisons test, Summary [2, 11]: ns
Nesting, Sidak's multiple comparisons test, Summary [2, 12]: ns
Social interaction, Sidak's multiple comparisons test, Summary [3, 6]: ns
Social interaction, Sidak's multiple comparisons test, Summary [3, 7]: **** (**** = p < 0.0001)
Social interaction, Sidak's multiple comparisons test, Summary [3, 8]: **** (**** = p < 0.0001)
Social interaction, Sidak's multiple comparisons test, Summary [3, 9]: ns
Social interaction, Sidak's multiple comparisons test, Summary [3, 10]: ns
Social interaction, Sidak's multiple comparisons test, Summary ([3]; WT + Vehicle v. WT + NNZ2591 (100 mg/kg)): ns
Social interaction, Sidak's multiple comparisons test, Summary [3, 12]: ns
Novel object recognition, Sidak's multiple comparisons test, Summary [4, 6]: ns
Novel object recognition, Sidak's multiple comparisons test, Summary [4, 8]: **** (**** = p < 0.0001)
Novel object recognition, Sidak's multiple comparisons test, Summary [4, 9]: ns
Novel object recognition, Sidak's multiple comparisons test, Summary [4, 10]: ns
Novel object recognition, Sidak's multiple comparisons test, Summary [4, 11]: ns
Novel object recognition, Sidak's multiple comparisons test, Summary [4, 12]: ns
IGF-1 level, Sidak's multiple comparisons test, Summary [5, 7]: **** (**** = p < 0.0001)
IGF-1 level, Sidak's multiple comparisons test, Summary [5, 10]: ns
IGF-1 level, Sidak's multiple comparisons test, Summary [5, 11]: ns
IGF-1 level, Sidak's multiple comparisons test, Summary [5, 12]: ns
